System: SUM149PT spheroids with HUVEC/MSC, viability
Test: Anticancer human tumor SUM149PT cell line growth inhibition [GQUAD];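 note: spheroids exposed to drugs for seven days before readout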;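 for viability, T/C: percent viability relative to DMSO vehicle control taken as 100%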
Conditions: for IC50: curve of first compound; for viability, T/C: stronger effect = lower value
In short: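 Multi-cell-type spheroids of tumor cells with HUVEC and mesenchymal stem cells, treated with drug combinations. Concentrations descend in half-log steps from near clinical Cmax, or from 10 microM where Cmax is unknown; viability read-out.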

[1] = second compound 0.0316 µM, first compound 0.0316 µM
[2] = second compound 0.0316 µM, first compound 0.1 µM
[3] = second compound 0.0316 µM, first compound 0.316 µM
[4] = second compound 0.0316 µM, first compound 1 µM
[5] = second compound 0.0316 µM, first compound 3.16 µM
[6] = second compound 0.0316 µM, first compound 10 µM
[7] = second compound 0.1 µM, first compound 0.0316 µM
[8] = second compound 0.1 µM, first compound 0.1 µM
[9] = second compound 0.1 µM, first compound 0.316 µM
[10] = second compound 0.1 µM, first compound 1 µM
[11] = second compound 0.1 µM, first compound 3.16 µM
[12] = second compound 0.1 µM, first compound 10 µM
[13] = second compound 0.316 µM, first compound 0.0316 µM
[14] = second compound 0.316 µM, first compound 0.1 µM
[15] = second compound 0.316 µM, first compound 0.316 µM
[16] = second compound 0.316 µM, first compound 1 µM
[17] = second compound 0.316 µM, first compound 3.16 µM
[18] = second compound 0.316 µM, first compound 10 µM
[19] = second compound 1 µM, first compound 0.0316 µM
[20] = second compound 1 µM, first compound 0.1 µM
[21] = second compound 1 µM, first compound 0.316 µM
[22] = second compound 1 µM, first compound 1 µM
[23] = second compound 1 µM, first compound 3.16 µM
[24] = second compound 1 µM, first compound 10 µM
[25] = second compound 3.16 µM, first compound 0.0316 µM
[26] = second compound 3.16 µM, first compound 0.1 µM
[27] = second compound 3.16 µM, first compound 0.316 µM
[28] = second compound 3.16 µM, first compound 1 µM
[29] = second compound 3.16 µM, first compound 3.16 µM
[30] = second compound 3.16 µM, first compound 10 µM
[31] = second compound 10 µM, first compound 0.0316 µM
[32] = second compound 10 µM, first compound 0.1 µM
[33] = second compound 10 µM, first compound 0.316 µM
[34] = second compound 10 µM, first compound 1 µM
[35] = second compound 10 µM, first compound 3.16 µM
[36] = second compound 10 µM, first compound 10 µM

`COc1cc(C2c3cc4c(cc3C(OC3OC5COC(C)OC5C(O)C3O)C3COC(=O)C23)OCO4)cc(OC)c1O` (stereo not drawn) + Cc1cnc(CNC(=O)c2c(=O)c3ccc(N4CCCN(C)CC4)nc3n3c2sc2ccccc23)cn1 showed an IC50 (second compound 0.0316 µM) of 365 nM, an IC50 (second compound 0.1 µM) of 304 nM and an IC50 (second compound 0.316 µM) of 125 nM. The IC50 (second compound 1 µM) was < 31.6 nM, the IC50 (second compound 3.16 µM) was < 31.6 nM and the IC50 (second compound 10 µM) was < 31.6 nM. For the same molecule, the viability, T/C [1] was 82.8%, the viability, T/C [2] was 59.1% and the viability, T/C [3] was 48.2%. The viability, T/C [4] was 45.8%, the viability, T/C [5] was 27.3% and the viability, T/C [6] was 13.3%. It also gave a viability, T/C [7] of 67.7%, a viability, T/C [8] of 52.1% and a viability, T/C [9] of 52.5%. For the same molecule, the viability, T/C [10] was 42%, the viability, T/C [11] was 24% and the viability, T/C [12] was 11.5%. The viability, T/C [13] was 57.8%, the viability, T/C [14] was 47.4% and the viability, T/C [15] was 44.5%. For the same molecule, the viability, T/C [16] was 40.1%, the viability, T/C [17] was 25.6% and the viability, T/C [18] was 12.4%. It also gave a viability, T/C [19] of 45.7%, a viability, T/C [20] of 45.9% and a viability, T/C [21] of 42.2%. The viability, T/C [22] was 39%, the viability, T/C [23] was 24.5% and the viability, T/C [24] was 13.4%. It also gave a viability, T/C [25] of 39.5%, a viability, T/C [26] of 38.1% and a viability, T/C [27] of 35.6%. The viability, T/C [28] was 39.6%, the viability, T/C [29] was 24.9% and the viability, T/C [30] was 14.3%. For the same molecule, the viability, T/C [31] was 0.14%, the viability, T/C [32] was 12.2% and the viability, T/C [33] was 31.4%. For the same molecule, the viability, T/C [34] was 19%, the viability, T/C [35] was 1.9% and the viability, T/C [36] was 3.26%.
For `CCc1c2c(nc3ccc(O)cc13)-c1cc3c(c(=O)n1C2)COC(=O)[C@]3(O)CC` + Cc1[nH]c2ccc(F)cc2c1-c1nc2c3cccnc3c3ncccc3c2[nH]1, the IC50 (second compound 0.0316 µM) was 2.34 nM, the IC50 (second compound 0.1 µM) was 2.58 nM and the IC50 (second compound 0.316 µM) was 1.88 nM. For the same molecule, the IC50 (second compound 1 µM) was 2.3 nM, the IC50 (second compound 3.16 µM) was 1.54 nM and the IC50 (second compound 10 µM) was < 0.999 nM. It also gave a viability, T/C (second compound 0.0316 µM, first compound 0.000999 µM) of 67.2%, a viability, T/C (second compound 0.0316 µM, first compound 0.00316 µM) of 34.9% and a viability, T/C (second compound 0.0316 µM, first compound 0.00999 µM) of 43.4%. It also gave a viability, T/C [1] of 34.7%, a viability, T/C (second compound 0.0316 µM, first compound 0.0999 µM) of 32.4% and a viability, T/C [3] of 18.2%. The viability, T/C (second compound 0.1 µM, first compound 0.000999 µM) was 69.1%, the viability, T/C (second compound 0.1 µM, first compound 0.00316 µM) was 32.6% and the viability, T/C (second compound 0.1 µM, first compound 0.00999 µM) was 45.4%. The viability, T/C [7] was 34.2%, the viability, T/C (second compound 0.1 µM, first compound 0.0999 µM) was 27.8% and the viability, T/C [9] was 16.8%. The viability, T/C (second compound 0.316 µM, first compound 0.000999 µM) was 61.4%, the viability, T/C (second compound 0.316 µM, first compound 0.00316 µM) was 33.3% and the viability, T/C (second compound 0.316 µM, first compound 0.00999 µM) was 37.8%. It also gave a viability, T/C [13] of 38.2%, a viability, T/C (second compound 0.316 µM, first compound 0.0999 µM) of 27.2% and a viability, T/C [15] of 15.7%. The viability, T/C (second compound 1 µM, first compound 0.000999 µM) was 65.9%, the viability, T/C (second compound 1 µM, first compound 0.00316 µM) was 35.5% and the viability, T/C (second compound 1 µM, first compound 0.00999 µM) was 38.1%. It also gave a viability, T/C [19] of 40.8%, a viability, T/C (second compound 1 µM, first compound 0.0999 µM) of 25.5% and a viability, T/C [21] of 18.4%. For the same molecule, the viability, T/C (second compound 3.16 µM, first compound 0.000999 µM) was 59.7%, the viability, T/C (second compound 3.16 µM, first compound 0.00316 µM) was 34.1% and the viability, T/C (second compound 3.16 µM, first compound 0.00999 µM) was 38.7%. For the same molecule, the viability, T/C [25] was 39.7%, the viability, T/C (second compound 3.16 µM, first compound 0.0999 µM) was 27.6% and the viability, T/C [27] was 15.7%. For the same molecule, the viability, T/C (second compound 10 µM, first compound 0.000999 µM) was 56.5%, the viability, T/C (second compound 10 µM, first compound 0.00316 µM) was 31.1% and the viability, T/C (second compound 10 µM, first compound 0.00999 µM) was 36.3%. It also gave a viability, T/C [31] of 39%, a viability, T/C (second compound 10 µM, first compound 0.0999 µM) of 25.3% and a viability, T/C [33] of 15.8%.
In the case of `CCCS(=O)(=O)Nc1ccc(F)c(C(=O)c2c[nH]c3ncc(-c4ccc(Cl)cc4)cc23)c1F` + Cc1[nH]c2ccc(F)cc2c1-c1nc2c3cccnc3c3ncccc3c2[nH]1, the IC50 (second compound 0.0316 µM) is reported as > 10000 nM, the IC50 (second compound 0.1 µM) is reported as > 10000 nM and the IC50 (second compound 0.316 µM) is reported as > 10000 nM. It also gave an IC50 (second compound 1 µM) of 9080 nM, an IC50 (second compound 3.16 µM) of 8190 nM and an IC50 (second compound 10 µM) of 7250 nM. The viability, T/C [1] was 107%, the viability, T/C [2] was 97.7% and the viability, T/C [3] was 109%. It also gave a viability, T/C [4] of 101%, a viability, T/C [5] of 74.7% and a viability, T/C [6] of 53.3%. The viability, T/C [7] was 102%, the viability, T/C [8] was 105% and the viability, T/C [9] was 102%. For the same molecule, the viability, T/C [10] was 99.8%, the viability, T/C [11] was 82.6% and the viability, T/C [12] was 54.9%. It also gave a viability, T/C [13] of 110%, a viability, T/C [14] of 104% and a viability, T/C [15] of 105%. The viability, T/C [16] was 102%, the viability, T/C [17] was 78.9% and the viability, T/C [18] was 51.2%. For the same molecule, the viability, T/C [19] was 103%, the viability, T/C [20] was 107% and the viability, T/C [21] was 105%. The viability, T/C [22] was 105%, the viability, T/C [23] was 79.6% and the viability, T/C [24] was 47.3%. For the same molecule, the viability, T/C [25] was 98.3%, the viability, T/C [26] was 92.7% and the viability, T/C [27] was 102%. The viability, T/C [28] was 109%, the viability, T/C [29] was 71.3% and the viability, T/C [30] was 45.6%. It also gave a viability, T/C [31] of 98.1%, a viability, T/C [32] of 104% and a viability, T/C [33] of 102%. The viability, T/C [34] was 105%, the viability, T/C [35] was 74.6% and the viability, T/C [36] was 40.4%.
In the case of `CC(C)(O)C1CCC(Nc2ccc3ncc(-c4cccc(C(F)(F)F)c4)n3n2)CC1` (stereo not drawn) + Cc1cnc(CNC(=O)c2c(=O)c3ccc(N4CCCN(C)CC4)nc3n3c2sc2ccccc23)cn1, the IC50 (second compound 0.0316 µM) is reported as 1090 nM, the IC50 (second compound 0.1 µM) is reported as 685 nM and the IC50 (second compound 0.316 µM) is reported as 349 nM. The IC50 (second compound 1 µM) was < 31.6 nM, the IC50 (second compound 3.16 µM) was < 31.6 nM and the IC50 (second compound 10 µM) was < 31.6 nM. It also gave a viability, T/C [1] of 72.8%, a viability, T/C [2] of 69.2% and a viability, T/C [3] of 58.2%. It also gave a viability, T/C [4] of 57%, a viability, T/C [5] of 32.6% and a viability, T/C [6] of 29.5%. It also gave a viability, T/C [7] of 57.3%, a viability, T/C [8] of 63% and a viability, T/C [9] of 67%. For the same molecule, the viability, T/C [10] was 43.9%, the viability, T/C [11] was 26.2% and the viability, T/C [12] was 24.3%. It also gave a viability, T/C [13] of 52.9%, a viability, T/C [14] of 50.8% and a viability, T/C [15] of 47.9%. The viability, T/C [16] was 44.6%, the viability, T/C [17] was 22.5% and the viability, T/C [18] was 25.8%. For the same molecule, the viability, T/C [19] was 43.7%, the viability, T/C [20] was 43.6% and the viability, T/C [21] was 37.9%. The viability, T/C [22] was 37.3%, the viability, T/C [23] was 18.9% and the viability, T/C [24] was 17.4%. It also gave a viability, T/C [25] of 32.9%, a viability, T/C [26] of 34.7% and a viability, T/C [27] of 32.5%. The viability, T/C [28] was 32.1%, the viability, T/C [29] was 18.5% and the viability, T/C [30] was 1.21%. For the same molecule, the viability, T/C [31] was 0.27%, the viability, T/C [32] was 2.83% and the viability, T/C [33] was 2.02%. For the same molecule, the viability, T/C [34] was 1.99%, the viability, T/C [35] was 2.14% and the viability, T/C [36] was 1.18%.

Reference: PubChem BioAssay AID2060484 (Molecular Pharmacology Branch, DTP, NCI, 2025)
